# Columns and labels:
# [1] = system: Human Cord Blood CD34+ Cells; experiment: FACS analysis of proliferation and differentiation of cord blood CD34+ cells cultured with IL3, G-CSF and Kit-ligand; type: cell-based; settings: for CD11b+ Cell Population / CD34+CD38+ Cell Population / CD34+CD38− Cell Population: 7 days
# Experimental: CB CD34+ cells were initiated at 4×10^4 cells/ml in a 24-well plate in 20% FCS IMDM (fetal calf serum/Iscove's Modified Dulbecco's Medium) supplemented with cytokines (1 L3, GCSF and Kit-ligand) (R&D Systems, Inc.). Thalidomide (Thal), ACTIMID™ or REVIMID™ were included in the culture at three different concentrations: 5 μg/ml, 1 μg/ml and 0.3 μg/ml. The same volumes of DMSO were used as controls. A negative control without, any compound was also used (indicated by “none” in FIGS. 3-7). Cells were cultured at 37° C. and 5% CO2 in a humidified incubator for 7 days. Cells were then harvested from each well.
# The total cell number from each well was determined by counting in a CELL-DYN® 1700 (Abbott Diagnostics) and the expression of CXCR4, CD45, CD34, CD38, CD 1 lb and Gly-A expression was analyzed by FACS (fluorescence-activated cell sorting) staining (FIGS. 3-7).
# CB cells from two different donors (CB2276 and CB2417) were cultured, assayed and analyzed separately (Table 1).
# [2] = system: human cord blood CD45+ cells; experiment: Flow cytograms of cord blood CD45+ cells cultured 14 days with IL3, IL6, G-CSF, Epo and KL; type: cell-based; settings: 5 μg/ml, FIG. 10
# Experimental: (§1) FIGS. 9(A-F). Flow cytograms. […] Cord blood CD45+ cells were cultured for 14 days with cytokines IL3, IL6, G-CSF, Epo and KL. Percentages indicated on each cytogram indicate the percentage of the cell population expressing a particular combination of markers. A. Control, immunoglobulin (Ig). B. Control, no compound added. C. DMSO (5 μg/ml). D. Thal (5 μg/ml). E. ACTIMID™ (5 μg/ml). F. REVIMID™ (5 μg/ml). X-axis: relative intensity of CD38 (FL1-H) staining. Y-axis: relative intensity of CD19 (FL2-H) staining. See Section 6.3 for details.
# as §1, with “10(A-F).” for “9(A-F).”, “CXCR5” for “CD38”, “CD34” for “CD19”
# [3] = system: Purified human cord blood CD34+ cells; experiment: Monocyte production: CD34/CD14 staining of cord blood CD34+ cells cultured 14 days with cytokines; type: cell-based
# Experimental: Purified human cord blood CD34+ cells (greater than 90% CD34+) were cultured in 20% FCS IMDM medium supplemented with cytokines (IL3, IL6, G-CSF, KL and Epo) at 4×10^4 cells/ml for 14 days at 37° C. in a humidified 5% CO2 incubator. The experimental groups consisted of a group in which (i) no DMSO or chemical compounds were added (“None”), (ii) DMSO only, (iii) Thalidomide dissolved in DMSO, (iv) ACTIMID™ dissolved in DMSO, and (v) REVIMID™ dissolved in DMSO. Aliquots of cells were harvested and stained with CD34-PE conjugated monoclonal antibody and CD14-FITC conjugated monoclonal antibody.
# [4] = system: Cord blood CD34+ hematopoietic progenitor cells; experiment: Colony forming unit (CFU) generation from cord blood CD34+ cells; type: cell-based, human; settings: IL-3, G-CSF, kit-ligand, vs DMSO
# Experimental: FIG. 1. Bar graph indicating results of culturing cord blood CD34+ cells in the presence of Thalidomide (THD), ACTIMID™, and REVIMID™ at concentrations of 1 μg/ml and 10 μg/ml. An equal volume of DMSO was used as a negative control. Hematopoietic colonies of burst forming units-erythroid (BFU-E), colony forming units-erythroid (CFU-E), colony forming units-granulocyte macrophage (CFU-GM) and total numbers of colonies (CFU-Total) were scored under the light microscope at day 14 of culture. Y-axis: numbers of colonies. See Section 6.1 for details.
# Cord blood CD34+ hematopoietic progenitor cells were plated in 96 well cultivation dishes at a density of 1000 cells per well in IMDM supplemented with 20% fetal calf serum and cytokines (IL-3, G-CSF and kit-ligand (R&D Systems, Inc.) The cells were exposed to Thalidomide (Thal), ACTIMID™ and REVIMID™, or DMSO (a control compound), and allowed to culture for 6 days. […] After culturing, cells were stained and sorted with a fluorescence activated. cell sorter (FACS). 400 μL of stained cells were harvested and diluted to 1.0 ml with 1% fetal calf serum in phosphate buffered saline (PBS). Cells were counted to determine the effect of modulation of stem cell differentiation.
# [5] = system: Human Cord Blood MNC Cells; experiment: FACS analysis of cryopreserved and thawed cord blood MNCs after 1 week of culture with cytokines; type: cell-based; settings: 5 μg in 1.7 μl DMSO, average +/− SD of three wells
# Experimental: Cord blood MNCs that had been cryopreserved and thawed using standard methods were isolated by standard Ficoll separation method and cultured in 24 well-plate at 0.5×10^6 cells/ml in 20% FCS-IMDM with cytokines (1L6, KL and G-CSF 10 ng/ml each) in triplicates. The experimental groups were None (cytokines only), DMSO (1.7 μl), ACTIMID™ (5.0 μg in 1.7 μl DMSO), REVIMID™ (5 μg in 1.7 μl DMSO). The cultured cells were harvested and analyzed by FACS staining after 1 week of culture. The data are expressed as an average +/− SD from three independent wells.
smiles,measurement,setting,value
"Nc1cccc2c1CN(C1CCC(=O)NC1=O)C2=O (stereo not drawn) [REVIMID™, 3-(4-amino-1-oxo-1,3-dihydro-isoindol-2-yl)-piperidine-2,6-dione]",expression of CXCR4,[1]; FACS analysis of surface proteins,inhibitory effect
same,yield of cells,"[1]; IL-3, KL and G-CSF, compared with the DMSO control",slightly higher number of cells
same,effect on the proliferation of CD34+ cells,"[1]; IL-3, KL and G-CSF, compared with the negative control (none)",do not have a significant effect
same,CD11b+ Cell Population,"[1]; donor CB2276, 0.3 μg/ml",13.3%
same,CD34+CD38+ Cell Population,"[1]; donor CB2276, 0.3 μg/ml",1.7
same,CD34+CD38− Cell Population,"[1]; donor CB2276, 0.3 μg/ml",9.8
same,CD11b+ Cell Population,"[1]; donor CB2276, 1 μg/ml",8.6%
same,CD34+CD38+ Cell Population,"[1]; donor CB2276, 1 μg/ml",1
same,CD34+CD38− Cell Population,"[1]; donor CB2276, 1 μg/ml",10.3
same,CD11b+ Cell Population,"[1]; donor CB2276, 5 μg/ml",4.8%
same,CD34+CD38+ Cell Population,"[1]; donor CB2276, 5 μg/ml",0.3
same,CD34+CD38− Cell Population,"[1]; donor CB2276, 5 μg/ml",4.0
same,CD11b+ Cell Population,"[1]; donor CB2417, 0.3 μg/ml",11.2%
same,CD34+CD38+ Cell Population,"[1]; donor CB2417, 0.3 μg/ml",0.9
same,CD34+CD38− Cell Population,"[1]; donor CB2417, 0.3 μg/ml",3.4
same,CD11b+ Cell Population,"[1]; donor CB2417, 1 μg/ml",8.2%
same,CD34+CD38+ Cell Population,"[1]; donor CB2417, 1 μg/ml",0.6
same,CD34+CD38− Cell Population,"[1]; donor CB2417, 1 μg/ml",3.8
same,CD11b+ Cell Population,"[1]; donor CB2417, 5 μg/ml",5.5%
same,CD34+CD38+ Cell Population,"[1]; donor CB2417, 5 μg/ml",0.3
same,CD34+CD38− Cell Population,"[1]; donor CB2417, 5 μg/ml",4.2
same,CD38 status of the majority of CD34+ and CD34− cells,[1]; treated cell populations,CD38−
same,level of CD11b expression by mean immunofluorescence (MIF),[1]; treated cells,decreased
same,repression of CXCR5 produced by exposure to DMSO,[2],overcomes the repression
same,percentage of monocyte lineage cells,"[3]; 5 μg/ml, compared to control, FIG. 13",increase
same,percentage of CD34+ cells of the total cells,"[3]; 14 days, IL3, IL6, G-CSF, KL and Epo, compound dissolved in DMSO",7.1%
same,production of monocytes (CD14+ cells),"[3]; 14 days, relative to DMSO-treated group",overcome
same,generation of erythropoietic colonies (BFU-E and CFU-E),[4],suppress
same,generation of leukocyte and platelet forming colonies (CFU-GM),[4],augmenting
same,total colony forming unit (CFU-Total) production,[4],enhancing
same,CD34(%),[5],2.34 +/− 0.22%
same,CD34+CD38−(%),[5],0.80 +/− 0.29%
same,CXCR4+CD45+(%),[5],3.6 +/− 0.9%
same,CXCR4+CD45−(%),[5],3.28 +/− 0.89%
same,Total CD34+ cells,[5],7166 +/− 802
same,Total cells (1 × 10^6),[5],0.30 +/− 0 1 × 10^6

# Reference: patent US8889411B2, “Modulation of stem and progenitor cell differentiation, assays, and uses thereof” (Anthrogenesis Corporation, priority 2002, dated 2014)
